Legend:
[1] = target: T1, soluble guanylate cyclase (sGC) (Homo sapiens (Human), UniProt Q02108+Q02153); assay: sGC-HEK-cGMP assay with SNP incubation, HTRF detection (Example 2B); format: cell-based; conditions: HEK293 cells, 10 μM SNP; for Emax: 100% = BAY 41-2272 at 10 μM + 100 μM SNP, read-out: HEK assay Emax - unconstrained (%); for EC50: read-out: HEK assay EC50 - unconstrained
Procedure: Human embryonic kidney cells (HEK293), endogenously expressing soluble guanylate cyclase (sGC), were used to evaluate the activity of test compounds. Compounds stimulating the sGC enzyme should cause an increase in the intracellular concentration of cGMP. HEK 293 cells were seeded in Dulbecco's Modification of Eagle's Medium supplemented with fetal bovine serum (10% final) and L-glutamine (2 mM final) in a 200 μL volume at a density of 1×10^5 cells/well in a poly-D-lysine coated 96 well flat bottom plate and grown overnight at 37° C. Medium was aspirated and cells were washed with 1× Hank's Buffered Saline Salt Solution (200 μL). Cells were then incubated for 15 minutes at 37° C. with 200 μL of a 0.5 mM 3-isobutyl-1-methylxanthine (IBMX) solution. Test article and sodium nitroprusside solutions were then added to the assay mixture (2 μL each) and the resulting mixture incubated at 37° C. for 10 minutes. After the 10 minute incubation, the assay mixture was aspirated and 0.1M HCl (200 μL) was added to the cells. The plate was incubated at 4° C. for 30 minutes in the 0.1M HCl to stop the reaction and lyse the cells. The plates were then centrifuged at 1,200 g for 5 minutes at room temperature. GMP levels were determined using a cGMP HTRF assay (Cisbio Product #62GM2PEC). For each sample, 5 uL of HEK assay supernatant was diluted 1:5 in HTRF kit assay diluent and transferred to a well of the assay plate, and the HTRF assay was performed according to the HTRF kit manufacturer's instructions. Sample calculations were performed using high and low controls, where high control was supernatant from HEK assay performed in the presence of 10 uM Bay 41-2272+100 uM SNP, and the low control was the supernatant from the HEK assay performed in the presence of vehicle. A cGMP standard solution was prepared in 0.1 M HCl and diluted in order to perform a cGMP standard curve using the HTRF assay. Using Mean Ratio data from the HTRF assay, sample date were normalized according to the equation: 100*(Sample−Low Control)/(High Control−Low Control). Data were fit to a 3-parameter log agonist dose response (Top (% EMax), Bottom, log EC50) using Graphpad (Prism Software). Data in Table 4 was obtained using this modified assay procedure. (x μM concentration for test article solution and 10 μM concentration for SNP solution; wherein x is one of the following concentrations: 30 μM, 10 μM, 3 μM, 1 μM, 0.3 μM, 0.1 μM, 0.03 μM, 0.01 μM, 0.003 μM, 0.001 μM, 0.0003 μM and 0.01 nM.

[2] = target: T1, soluble guanylate cyclase (sGC); assay: sGC-HEK-cGMP assay with SNP incubation, LC/MS detection (Example 2A); format: cell-based; conditions: HEK293 cells, 10 μM SNP, LC/MS detection; for Emax: 100% = BAY 41-2272 at 10 μM, read-out: HEK assay Emax - unconstrained (%)
Summary of the method: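 HEK293 cells with endogenous sGC were pretreated 15 min at 37 °C with 0.5 mM IBMX, then exposed 10 min at 37 °C to compound (added from 0.0001–30 μM solutions) plus SNP (from 10 μM solution). After 0.1 M HCl lysis, cGMP was quantified by LC/MS against a standard curve.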

[3] = target: T1, soluble guanylate cyclase (sGC); assay: sGC-HEK-cGMP assay, new protocol with DETA-NONOate, LC/MS detection (Example 2C); format: cell-based; conditions: read-out: Absolute EC50 (uM) - binned
Sprague-Dawley rats = assay: Blood pressure change in Sprague-Dawley rats (Example 4); format: in vivo, rat; conditions: conscious male Sprague-Dawley rats, PO, 10 mg/kg
Procedure: Male rats (250-350 g body weight, supplied by Harlan Laboratories) were anesthetized with ketamine/xylazine and a heparinized saline fluid filled catheter implanted into the right femoral artery. The catheter was exteriorized between the scapula, capped, and the animal allowed to recover for at least 7 days post surgery prior to any compound testing. Prior to testing animals were maintained on normal diet, with free access to drinking water, under a 12 hour light-dark cycle.
On the day of experimentation, under inhaled isoflurane anesthesia, the catheter was uncapped and connected to a tether (Instech Labs) and pressure transducer (Harvard Apparatus). Blood pressure and heart rate were subsequently captured and analyzed with a dedicated data capture system (PowerLab, ADInstruments). Data sampling rates were set at 1 cycle per second. Once connected, each rat was allowed to recover from anesthesia and baseline blood pressure and heart rate levels were established in these conscious, freely-moving animals. Once baseline was established either vehicle (0.5% methylcellulose or 100% PEG400) or test article was administered orally (PO, 10 mg/kg) and the effects on blood pressure and heart rate monitored for up to 24 hours.
Data are reported as hourly averages and changes in blood pressure are calculated from subtracting individual baseline on an hourly basis.

[4] = top of curve not fitted to 100%, read-out: HEK assay EC50 - unconstrained
[5] = top of curve fitted to 100%, read-out: HEK assay EC50 - constrained

T1 sequence (Q02153 whole entry): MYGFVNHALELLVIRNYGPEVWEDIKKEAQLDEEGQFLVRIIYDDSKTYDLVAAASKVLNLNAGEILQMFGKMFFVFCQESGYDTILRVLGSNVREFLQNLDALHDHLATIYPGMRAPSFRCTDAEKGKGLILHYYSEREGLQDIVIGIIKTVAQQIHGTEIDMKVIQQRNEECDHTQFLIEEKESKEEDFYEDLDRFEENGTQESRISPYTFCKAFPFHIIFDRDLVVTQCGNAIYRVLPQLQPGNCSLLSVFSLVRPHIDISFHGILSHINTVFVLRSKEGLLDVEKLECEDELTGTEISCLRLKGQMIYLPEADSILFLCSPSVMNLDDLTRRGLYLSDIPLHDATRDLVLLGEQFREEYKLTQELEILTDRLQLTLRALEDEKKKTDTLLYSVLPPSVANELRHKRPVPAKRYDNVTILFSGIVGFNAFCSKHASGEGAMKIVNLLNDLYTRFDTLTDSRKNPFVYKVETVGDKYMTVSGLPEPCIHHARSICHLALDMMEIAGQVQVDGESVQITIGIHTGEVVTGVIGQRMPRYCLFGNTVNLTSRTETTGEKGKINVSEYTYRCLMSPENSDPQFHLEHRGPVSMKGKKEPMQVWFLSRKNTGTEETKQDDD
T1 sequence (Q02108 whole entry): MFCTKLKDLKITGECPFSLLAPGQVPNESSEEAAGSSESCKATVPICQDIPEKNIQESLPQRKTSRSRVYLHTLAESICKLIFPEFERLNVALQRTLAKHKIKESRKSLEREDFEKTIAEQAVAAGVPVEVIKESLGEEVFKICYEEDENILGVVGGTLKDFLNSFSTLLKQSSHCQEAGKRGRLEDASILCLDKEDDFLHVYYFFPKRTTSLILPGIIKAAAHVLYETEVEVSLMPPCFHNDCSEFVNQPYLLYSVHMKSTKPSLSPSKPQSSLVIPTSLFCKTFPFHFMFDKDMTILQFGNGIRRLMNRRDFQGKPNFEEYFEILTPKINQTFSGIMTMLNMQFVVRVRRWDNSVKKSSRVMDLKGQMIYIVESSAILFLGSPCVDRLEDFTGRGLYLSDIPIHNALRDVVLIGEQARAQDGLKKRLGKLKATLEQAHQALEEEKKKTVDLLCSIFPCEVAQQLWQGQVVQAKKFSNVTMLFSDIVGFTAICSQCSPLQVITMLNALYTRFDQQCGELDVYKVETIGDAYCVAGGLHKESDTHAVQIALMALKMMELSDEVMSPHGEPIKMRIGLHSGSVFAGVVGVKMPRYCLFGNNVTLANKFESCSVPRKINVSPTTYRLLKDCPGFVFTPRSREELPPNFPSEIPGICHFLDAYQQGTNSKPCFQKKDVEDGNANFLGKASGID

SMILES	Emax [1] [%]	Emax [2] [%]	EC50 [1] [nM]	EC50 [3] [µM]	EC50 [2, 4] [nM]	EC50 [2, 5] [nM]	Rat Mean Arterial Pressure peak change from baseline at 10 mpk (Sprague-Dawley rats)
Fc1ccccc1Cn1nc(-c2ncc(F)c(N3CCOCC3)n2)cc1-c1ccon1 [Compound I-3]	80 to 100	60 to 80					
Fc1ccccc1Cn1nc(-c2ncc(F)c(N3CCn4c(nnc4C(F)(F)F)C3)n2)cc1-c1ccon1 [Compound I-16]	100 to 120	100 to 120	1 to 100	< 0.1	1 to 100		
N#Cc1cnc(-c2cc(-c3ccon3)n(Cc3ccccc3F)n2)nc1N1CCOCC1 [Compound I-29]	40 to 60		100 to 500				
Fc1ccccc1Cn1nc(-c2ncc(F)c(NC3CCNCC3)n2)cc1-c1ccon1 [Compound I-36]	80 to 100	40 to 60	100 to 500		1000 to 5000		
COC(=O)Nc1nc(-c2cc(-c3ccon3)n(Cc3ccccc3F)n2)ncc1F [Compound I-51]	80 to 100		500 to 1000			1000 to 5000	
O=C(O)CNc1nc(-c2cc(-c3ccon3)n(Cc3ccccc3F)n2)ncc1F [Compound I-67]	60 to 80	80 to 100	1000 to 5000	> 1	5000 to 10000	> 10000	
CC(C)[C@@H](C(=O)O)N(C)c1nc(-c2cc(-c3ccon3)n(Cc3ccccc3F)n2)ncc1F [Compound I-89]		60 to 80		< 0.1	1 to 100		C (C = peak change from baseline at 10 mpk < −20)
O=C(O)C1(c2ccccc2)CCN(c2nc(-c3cc(-c4ccon4)n(Cc4ccccc4F)n3)ncc2F)CC1 [Compound I-186]		80 to 100		< 0.1	1 to 100		B (B = −20 ≤ peak change from baseline at 10 mpk ≤ −10)
CC(C)[C@@H](C(=O)NS(=O)(=O)C1CC1)N(C)c1nc(-c2cc(-c3ccon3)n(Cc3ccccc3F)n2)ncc1F [Compound I-187]		80 to 100		< 0.1	1 to 100		A (A = −10 < peak change from baseline at 10 mpk < 0)
CC(C)[C@@H](C(=O)O)N(C)c1nc(-c2nc(-c3ccon3)n(Cc3ccccc3F)n2)ncc1F [Compound I-200]	100 to 120	80 to 100	1000 to 5000	> 1	5000 to 10000	1000 to 5000	
CC(C)C[C@H](C(=O)O)N(C)c1nc(-c2cc(-c3ccon3)n(Cc3ccccc3F)n2)ncc1F [Compound I-221]	100 to 120	0 to 10	1000 to 5000	< 0.1	> 10000		
CC1(C(=O)O)CCN(c2nc(-c3nc(-c4ccon4)n(Cc4ccccc4F)n3)ncc2F)CC1 [Compound I-249]	100 to 120	60 to 80	500 to 1000		1000 to 5000		
O=C(O)[C@H]1[C@@H]2CN(c3nc(-c4cc(-c5ccon5)n(Cc5ccccc5F)n4)ncc3F)C[C@@H]21 [Compound I-271]	80 to 100		1 to 100				
CC(C)C1(C(=O)O)CCN(c2nc(-c3cc(-c4ccon4)n(Cc4ccccc4F)n3)ncc2F)CC1 [Compound I-306]		80 to 100		< 0.1	1 to 100		B (B = −20 ≤ peak change from baseline at 10 mpk ≤ −10)
OCC(CO)Nc1nc(-c2cc(-c3ccon3)n(Cc3ccccc3F)n2)ncc1F [Compound I-315]				< 0.1			C (C = peak change from baseline at 10 mpk < −20)
OC[C@H](O)CNc1nc(-c2cc(-c3ccon3)n(Cc3ccccc3F)n2)ncc1F [Compound I-316]				< 0.1			C (C = peak change from baseline at 10 mpk < −20)
OC(CNc1nc(-c2cc(-c3ccon3)n(Cc3ccccc3F)n2)ncc1F)(C(F)(F)F)C(F)(F)F [Compound I-324]				0.101 to 1			C (C = peak change from baseline at 10 mpk < −20)
OC(CNc1nc(-c2cc(-c3ccon3)n(Cc3ccccc3F)n2)ncc1F)C(F)(F)F (stereo not drawn) [Compound I-337]				< 0.1			C (C = peak change from baseline at 10 mpk < −20)
C[C@H]1CCCN(c2nc(-c3cc(-c4ccon4)n(Cc4ccccc4F)n3)ncc2F)[C@H]1c1nn[nH]n1 [Compound I-341]				< 0.1			A (A = −10 < peak change from baseline at 10 mpk < 0)
CN(CC1(C(=O)O)CCC1)c1nc(-c2cc(-c3ccon3)n(Cc3ccccc3F)n2)ncc1F [Compound I-342]				< 0.1			C (C = peak change from baseline at 10 mpk < −20)
O=S(=O)(NC1CN(c2nc(-c3cc(-c4ccon4)n(Cc4ccccc4F)n3)ncc2F)C1)C(F)(F)F [Compound I-388]				< 0.1			B (B = −20 ≤ peak change from baseline at 10 mpk ≤ −10)
CC(O)(CNc1nc(-c2cc(-c3ccon3)n(Cc3ccccc3F)n2)ncc1F)C(N)=O (stereo not drawn) [Compound I-389]				< 0.1			C (C = peak change from baseline at 10 mpk < −20)
O=C(Nc1ccnc(-c2cc(-c3ccon3)n(Cc3ccccc3F)n2)n1)C(O)(C(F)(F)F)C(F)(F)F [Compound I-400]				0.101 to 1			B (B = −20 ≤ peak change from baseline at 10 mpk ≤ −10)
NC(=O)C(O)(CNc1nc(-c2cc(-c3ccon3)n(Cc3ccccc3F)n2)ncc1F)C(F)(F)F (stereo not drawn) [Compound I-405]				0.101 to 1			C (C = peak change from baseline at 10 mpk < −20)

Reference: patent US10183021B2, “sGC stimulators” (Ironwood Pharmaceuticals, Inc., priority 2013, dated 2019)
